{"source": "patent US11213522B2", "about": "“Autoimmune-induced glutamatergic receptor dysfunction methods and treatments” (SARAH HERZOG MEMORIAL HOSPITAL EZRAT NASHIM ASSOCIATION, priority 2013, dated 2022)", "key": {"[1]": {"test_system": "patient positive for anti-NR1 NMDAR antibodies", "experiment": "Positive and Negative Syndrome Scale (PANSS), D-serine clinical trial", "format": "in vivo, human", "details": "for PANSS Negative: week 0 score 18; for PANSS Positive: week 0 score 24; for PANSS General: week 0 score 55; for PANSS Total: week 0 score 97", "source_text": "Out of the seventeen patients that entered the study, the serum of one patient was strongly positive at both serum sample dilutions for the presence of both IgG and IgM classes of anti-NR1 NMDAR antibodies. The patient was a single person having a diagnosis of schizophrenia according to DSM-IV-R criteria (American Psychiatric Association, 2000 Diagnostic and Statistical Manual of Mental Disorders-(DSM-IV-TR), 4th edition. American Psychiatric Association Washington D.C. (Text Revision)). There was no history of mental disorder in the patient's family. The patient had completed post-high school studies and had worked as a secretary. After a period of continuous headaches, for which no organic basis had been found, they had abruptly developed an acute psychosis characterized by grandiose and paranoid delusions, mystical thinking, […] affect and agitation, They had been hospitalized in a psychiatric hospital and underwent treatment with antipsychotic drugs and electroconvulsive therapy with only partial response. The patient had never returned to their previous functional and except for short attempts at living in the community, has been hospitalized ever since. They have been refractory to treatment with various classes of antipsychotic drugs, was not diagnosed with any medical or neurological disorder and was maintained on sulpiride 50 mg/day, citalopram 40 mg/day, lorazepam 1 mg/day and promethazine 50 mg/day. […] DSR is a naturally occurring amino acid that acts in vivo as an obligatory co-agonist at the glycine modulatory site associated with NMDAR. […] Both acute and chronic administration of 1-2 g DSR in humans is known to result in ≥100 times increases in DSR serum levels (Kantrowitz et al., 2010, Schizophr Res121:125-30; Heresco-Levy et al., 2005, Biol Psychiatry 57:577-85). The trial consisted of two periods, starting with a 2 week lead-in/stabilization period (-2-0) following which the patient was entered in the second period of the study which consisted of a 6 week (0-6), open-label, fixed dose therapy phase. During this phase, the patient received adjuvant treatment with DSR, whose dose was increased from 1500 mg/day (week 1) to 2000 mg/day (weeks 2 and 3) to 3000 mg/day (weeks 4 and 5) and to 4000 mg/day (week 6). The doses of the ongoing medication received by the patient remained fixed throughout the study and no changes in medication were performed. The assessment procedures used in the study included clinical and neurocognitive examinations. Motor and psychiatric symptoms as well as side-effects were rated biweekly throughout the study. The following instruments were used: 1) Positive and Negative Syndrome Scale (PANSS) (Kay et al., 1987, Positive and Negative Syndrome Scale (PANSS) rating manual. San Rafael California: Social and Behavioral Sciences Documents); 2) Quality of Life Scale (QLS) (Wilkinson et al., 2000, Self-report quality of life measure for people with schizophrenia: the SQLS. Br J Psychiatry 177:42-6); 3) Abnormal Involuntary Movement Scale (AIMS) (Guy, 1976, ECDEU Assessment Manual for Psychopharmacology-Revised. Rockville, Md.: US Dept. of Health, Education and Welfare); 4) Simpson Angus Scale for Extrapyramidal Symptoms (SAS) (Simpson and Angus, 1970, Acta Psychiatr Scand Suppl. 212:11-9); and 5) Udvalg for […] Undersogelser (UKU) Side Effect Rating Scale (Lingjaerde, et al., 1987 Acta Psychiatr Scand Suppl 334:1-100). In conjunction with UKU ratings, patient's vital signs and body weight were monitored throughout the study."}, "[2]": {"test_system": "patient positive for anti-NR1 NMDAR antibodies", "experiment": "Abnormal Involuntary Movement Scale (AIMS), D-serine clinical trial", "format": "in vivo, human", "details": "for AIMS: week 0 score 1", "source_text": "(§1) Out of the seventeen patients that entered the study, the serum of one patient was strongly positive at both serum sample dilutions for the presence of both IgG and IgM classes of anti-NR1 NMDAR antibodies. The patient was a single person having a diagnosis of schizophrenia according to DSM-IV-R criteria (American Psychiatric Association, 2000 Diagnostic and Statistical Manual of Mental Disorders-(DSM-IV-TR), 4th edition. American Psychiatric Association Washington D.C. (Text Revision)). There was no history of mental disorder in the patient's family. The patient had completed post-high school studies and had worked as a secretary. After a period of continuous headaches, for which no organic basis had been found, they had abruptly developed an acute psychosis characterized by grandiose and paranoid delusions, mystical thinking, […] affect and agitation, They had been hospitalized in a psychiatric hospital and underwent treatment with antipsychotic drugs and electroconvulsive therapy with only partial response. The patient had never returned to their previous functional and except for short attempts at living in the community, has been hospitalized ever since. They have been refractory to treatment with various classes of antipsychotic drugs, was not diagnosed with any medical or neurological disorder and was maintained on sulpiride 50 mg/day, citalopram 40 mg/day, lorazepam 1 mg/day and promethazine 50 mg/day. […] DSR is a naturally occurring amino acid that acts in vivo as an obligatory co-agonist at the glycine modulatory site associated with NMDAR. […] Both acute and chronic administration of 1-2 g DSR in humans is known to result in ≥100 times increases in DSR serum levels (Kantrowitz et al., 2010, Schizophr Res121:125-30; Heresco-Levy et al., 2005, Biol Psychiatry 57:577-85). The trial consisted of two periods, starting with a 2 week lead-in/stabilization period (-2-0) following which the patient was entered in the second period of the study which consisted of a 6 week (0-6), open-label, fixed dose therapy phase. During this phase, the patient received adjuvant treatment with DSR, whose dose was increased from 1500 mg/day (week 1) to 2000 mg/day (weeks 2 and 3) to 3000 mg/day (weeks 4 and 5) and to 4000 mg/day (week 6). The doses of the ongoing medication received by the patient remained fixed throughout the study and no changes in medication were performed. The assessment procedures used in the study included clinical and neurocognitive examinations. Motor and psychiatric symptoms as well as side-effects were rated biweekly throughout the study. […] In conjunction with UKU ratings, patient's vital signs and body weight were monitored throughout the study."}, "[3]": {"test_system": "patient positive for anti-NR1 NMDAR antibodies", "experiment": "Simpson Angus Scale for Extrapyramidal Symptoms (SAS), D-serine clinical trial", "format": "in vivo, human", "details": "week 0 score 5", "source_text": "as §1, with “57:577-85).” for “57:577-85). The trial consisted of two periods, starting with a 2 week lead-in/stabilization period (-2-0) following which the patient was entered in the second period of the study which consisted of a 6 week (0-6), open-label, fixed dose therapy phase. During this phase, the patient received adjuvant treatment with DSR, whose dose was increased from 1500 mg/day (week 1) to 2000 mg/day (weeks 2 and 3) to 3000 mg/day (weeks 4 and 5) and to 4000 mg/day (week 6). The doses of the ongoing medication received by the patient remained fixed throughout the study and no changes in medication were performed. The assessment procedures used in the study included clinical and neurocognitive examinations. Motor and psychiatric symptoms as well as side-effects were rated biweekly throughout the study.”"}, "[4]": {"test_system": "Rodent neuron cell cultures treated with anti-NMDAR antibodies", "experiment": "Example 3: NMDAR localization in neuron cultures treated with anti-NMDAR antibodies", "format": "cell-based", "details": "D-Serine 50-200 uM; histological measurements", "protocol": "Rodent neuron cell cultures are treated with anti-NMDAR antibodies as described in Hughes E G et al., J Neurosci 2012 30(17):5866-75. […] The determination of receptors localization and other relevant measures is based on histological measurements.\nImmunohistochemical methods will be applied to document (a) localization of NMDAR and NR1 and NR2 subunits; (b) loss of oligodendrocytes; (c) changes in astrocytes (S100beta) and microglia (cd11b), (d) expression of neurotrophic factors: brain derived neurotrophic factor (BDNF), nerve growth factor (NGF) and ciliary neurotrophic factor (CNTF); (e) markers of neurogenesis—doublecortin (17) and apoptosis—caspase3 (9). Quantification of histological measurements is based on images in several cortical subregions, striatum, […], hippocampus, and cerebellum."}, "[5]": {"details": "acute and chronic administration of 1-2 g DSR in humans; cited from earlier work"}}}
{"smiles": "N[C@H](CO)C(=O)O", "note": "[D-serine]", "values": [{"measurement": "PANSS positive, negative and general psychopathology symptom domains", "setting": "[1]; during treatment with DSR", "value": "improved"}, {"measurement": "Total PANSS score lower by the end of the study", "setting": "[1]; end of study vs baseline total score of 97", "value": 17, "unit": "%"}, {"measurement": "PANSS Negative", "setting": "[1]; study week 2", "value": 19}, {"measurement": "PANSS Positive", "setting": "[1]; study week 2", "value": 21}, {"measurement": "PANSS General", "setting": "[1]; study week 2", "value": 54}, {"measurement": "PANSS Total", "setting": "[1]; study week 2", "value": 96}, {"measurement": "PANSS Negative", "setting": "[1]; study week 4", "value": 17}, {"measurement": "PANSS Positive", "setting": "[1]; study week 4", "value": 21}, {"measurement": "PANSS General", "setting": "[1]; study week 4", "value": 51}, {"measurement": "PANSS Total", "setting": "[1]; study week 4", "value": 89}, {"measurement": "PANSS Negative", "setting": "[1]; study week 6", "value": 16}, {"measurement": "PANSS Positive", "setting": "[1]; study week 6", "value": 19}, {"measurement": "PANSS General", "setting": "[1]; study week 6", "value": 45}, {"measurement": "PANSS Total", "setting": "[1]; study week 6", "value": 80}, {"measurement": "Motor symptomatology, as measured by AIMS and SAS scores", "setting": "[2]; following DSR administration, minimal at baseline", "value": "improvements were registered"}, {"measurement": "AIMS", "setting": "[2]; study week 2", "value": 0}, {"measurement": "AIMS", "setting": "[2]; study week 4", "value": 0}, {"measurement": "AIMS", "setting": "[2]; study week 6", "value": 0}, {"measurement": "SAS", "setting": "[3]; study week 2", "value": 4}, {"measurement": "SAS", "setting": "[3]; study week 4", "value": 4}, {"measurement": "SAS", "setting": "[3]; study week 6", "value": 3}, {"measurement": "Effect on NMDAR intracellular localization", "setting": "[4]", "value": "reversing receptor intracellular localization"}, {"measurement": "Increase in DSR serum levels", "setting": "[5]", "value": "≥ 100", "unit": "times"}]}
